pEC50: −log10 of the molar value.

EC50 data for one molecule are collected here from patent US9284288B2, “1-(p-tolyl) cyclopropyl substituted bridged spiro[2.4]heptane derivatives as ALX receptor agonists” (Actelion Pharmaceuticals Ltd., priority 2012, dated 2016).

This assay concerns the target T1, recombinant human ALX receptor (Homo sapiens, UniProt P25090).
T1 construct: expressed in transfected cells; host or cells: HEK293
T1 sequence (P25090 1-351): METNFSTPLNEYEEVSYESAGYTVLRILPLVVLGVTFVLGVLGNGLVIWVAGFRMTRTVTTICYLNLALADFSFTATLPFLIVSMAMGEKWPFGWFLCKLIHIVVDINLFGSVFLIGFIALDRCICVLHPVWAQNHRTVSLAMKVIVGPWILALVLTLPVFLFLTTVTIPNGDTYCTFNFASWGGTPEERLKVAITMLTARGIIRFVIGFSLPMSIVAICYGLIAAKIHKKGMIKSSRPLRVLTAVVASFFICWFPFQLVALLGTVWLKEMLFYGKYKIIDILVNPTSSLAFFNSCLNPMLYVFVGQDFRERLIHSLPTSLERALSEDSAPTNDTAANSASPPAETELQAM
Description: Intracellular calcium measurements (FLIPR), ALX receptor agonistic activity. As to conditions: HEK293-hALXR-Gα16 cells; normalized to WKYMVm 10 nM; read-out: EC50 (agonistic activity with respect to the ALX receptor). It counts as cell-based. The protocol:
The ALX receptor agonistic activity of the compounds of formula (I) is determined in accordance with the following experimental method.
Cells expressing recombinant human ALX receptor and the G-protein Gα16 (HEK293-hALXR-Gα16) were grown to 80% confluency in Growing Medium (GM). Cells were detached from culture dishes with a cell dissociation buffer (Invitrogen, 13151-014), and collected by centrifugation at 1′000 rpm at rt for 5 min in Assay Buffer (AB) (equal parts of Hank's BSS (Gibco, 14065-049) and DMEM without Phenol Red (Gibco, 11880-028)). After 60 min incubation at 37° C. under 5% CO2 in AB supplemented with 1 μM Fluo-4 (AM) (Invitrogen, F14202) and 20 mM HEPES (Gibco, 15630-056), the cells were washed and resuspended in AB. They were then seeded onto 384-well FLIPR assay plates (Greiner, 781091) at 50,000 cells in 70 μl per well and sedimented by centrifugation at 1,000 rpm for 1 min. Stock solutions of test compounds were made up at a concentration of 10 mM in DMSO, and serially diluted in AB to concentrations required for activation dose response curves. WKYMVm (Phoenix Peptides) was used as a reference agonist. […] Changes in fluorescence were monitored before and after the addition of test compounds at lex=488 nm and lem=540 nm. […]
(In general: Calcium assays in cells follow changes in intracellular calcium, usually with a dye or a luminescent sensor.)

The pEC50 is −log10 of the EC50, conventionally taken in molar units. Take `Cc1ccc(C2(NC(=O)C3C(C(=O)NCCCCN4CCCC4)C4CCC3C43CC3)CC2)cc1` [Example 1, (5R)-N^5-(1-(p-tolyl)cyclopropyl)-(6R)-N^6-(4-(pyrrolidino)butyl)-(4S,7R)-[4,7-ethylene-spiro[2.4]heptane]-5,6-dicarboxamide]: the negative logarithm of the EC50 (pEC50) is 8.40.
